Measurements: patent US20190134034A1, “Method of Treating Liver Cancer” (ASLAN Pharmaceuticals Pte. Ltd., priority 2016, published 2019)
“Also recorded” adds a separate entry of the source.

Experiments:
[1] = system: HCC29-0909A HCC patient-derived xenograft (co-expression of HER1, HER2 and HER3); assay: HCC patient-derived xenograft model HCC29-0909A in SCID mice, tumour volume; format: in vivo; details: HCC29-0909A PDX in SCID mice
Method: A HCC patient-derived xenograft model in SCID mice (HCC29-0909A) with co-expression of HER1, HER2 and HER3 receptors [Cancer Res Aug. […] Dosing with varlitinib commenced when the tumours reached the size of approximately 100-150 mm^3. Bi-dimensional measurements are performed twice a week and tumour volumes are calculated based on the following formula: Tumour volume=[(Length)×(Width^2)×(p/6)].
Groups of mice were dosed as follows:
Group 1 control group received vehicle only
Group 2 received 25 mg/Kg of ASLAN001 BID (twice daily),
Group 3 received 50 mg/Kg of ASLAN001 BID (twice daily), and
Group 4 received 100 mg/Kg of ASLAN001 BID (twice daily).

[2] = system: phosphorylation of HER1-3, RAS/RAF/MEK/MAPK, p70S6K, S6 ribosomal, 4EBP1, Cdc-2 and retinoblastoma; assay: Western blot analysis of tumour lysates from HCC29-0909A xenograft (pharmacodynamics); format: in vivo, SCID mice; details: Western blot of tumour lysates after two and fourteen days of treatment
[3] = system: HCC01-0708 HER2/HER3 co-expressing PDX model of HCC; assay: HCC patient-derived xenograft model HCC01-0708, tumour volume; format: in vivo; details: HCC01-0708 PDX; 25, 50 or 100 mg/kg BID
MAPK pathway = assay: Pharmacodynamics in HCC01-0708 PDX model; format: in vivo; details: after twelve days of treatment
HCC cell lines = assay: Early apoptosis in HCC cell lines (Muse Annexin V & Dead Cell Assay); format: cell-based; details: all HCC cell lines tested; 48 hours of incubation
Method: (§1) An in vitro experiment was conducted to investigate whether varlitinib induced apoptosis in HCC cell lines. HCC cells were grown in cell culture medium with 10% FBS and with varying concentrations of varlitinib. Apoptosis profiles were analysed at 24 hour and 48 hour timepoints, using Muse Annexin V & Dead Cell Assay kit and Muse Cell Analyser. Early apoptosis cells (identified as Annexin V-PE positive and Dead Cell Marker negative) were measured and plotted.

Huh7-SorR cells = assay: Early apoptosis in sorafenib resistant cells (Muse Annexin V & Dead Cell Assay); format: cell-based; details: high dose of varlitinib
Method: as §1

PLC/PRF/5 cells = assay: Apoptosis (AnnexinV) profile of PLC/PRF/5 cells; format: cell-based; details: 48 hour culture, increasing concentration
Method: as §1

C[C@@H]1COC(Nc2ccc3ncnc(Nc4ccc(OCc5nccs5)c(Cl)c4)c3c2)=N1 [varlitinib, (R)-N4-[3-Chloro-4-(thiazol-2-ylmethoxy)-phenyl]-N6-(4-methyl-4,5,-dihydro-oxazol-2-yl)-quinazoline-4,6-diamine]
tumor regression ([1]; 100 mg/kg BID): complete tumor regression
tumour growth inhibition (tumour volume) ([1]; 25, 50 or 100 mg/kg BID): potently inhibited tumour growth; also recorded: dose-dependent tumour volume growth inhibition
phosphorylation of HER1-3, RAS/RAF/MEK/MAPK, p70S6K, S6 ribosomal, 4EBP1, Cdc-2 and retinoblastoma [2]: strongly inhibited
tumour growth inhibition (tumour volume) [3]: inhibited tumour growth; also recorded: dose-dependent tumour volume growth inhibition
inhibition of the MAPK pathway (MAPK pathway): robust inhibition
induction of early apoptosis (Annexin V-PE positive, Dead Cell Marker negative) (HCC cell lines): able to induce early apoptosis
early apoptosis (Huh7-SorR cells): ~70%
percentage of apoptotic cells (PLC/PRF/5 cells): increase in percentage of apoptotic cells correlates with increasing varlitinib concentration
